Reference: patent US8877801B2, “Compounds and compositions as selective estrogen receptor degraders” (Novartis AG, priority 2013, dated 2014)

molecular target: T1, ER (Homo sapiens, UniProt P03372); assay: ER transcription assay (MCF7 cells), ERE-luciferase reporter; type: cell-based; conditions: MCF7 cells, ER reporter gene, 0.1 nM 17β estradiol, 24 hours; read-out: MCF7 IC50 (inflection point of the inhibition of transcription in MCF7 cells)
T1 construct: transfected in MCF7 cells (containing endogenous ER); endogenous in cells; host or cells: MCF7 cells
T1 sequence (P03372 1-595): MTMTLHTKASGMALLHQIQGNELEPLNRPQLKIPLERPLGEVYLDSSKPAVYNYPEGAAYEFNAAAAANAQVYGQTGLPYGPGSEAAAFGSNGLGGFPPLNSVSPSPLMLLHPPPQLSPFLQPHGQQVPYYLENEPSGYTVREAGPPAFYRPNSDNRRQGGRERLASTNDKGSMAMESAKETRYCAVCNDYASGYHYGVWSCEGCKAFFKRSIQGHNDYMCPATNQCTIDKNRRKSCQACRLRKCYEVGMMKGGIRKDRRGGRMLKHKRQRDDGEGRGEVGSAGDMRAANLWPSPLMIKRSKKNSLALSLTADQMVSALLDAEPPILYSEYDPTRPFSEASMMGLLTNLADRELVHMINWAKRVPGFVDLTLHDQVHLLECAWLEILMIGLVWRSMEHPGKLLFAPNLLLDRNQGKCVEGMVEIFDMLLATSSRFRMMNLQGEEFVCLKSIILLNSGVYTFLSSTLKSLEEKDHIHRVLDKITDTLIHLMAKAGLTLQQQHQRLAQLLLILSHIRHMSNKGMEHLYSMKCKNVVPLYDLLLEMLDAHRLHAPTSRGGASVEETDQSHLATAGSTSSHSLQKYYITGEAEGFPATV
From the text: ER Transcription Assay (MCF7 Cells)
The ER transcription assay is a reporter assay that is based on the ability of ER to induce transcription from a luciferase reporter gene containing estrogen response elements (EREs) in the promoter/enhancer region. When the reporter gene is transfected in MCF7 cells (containing endogenous ER), transcription is reflected by the level of luciferase expression.
A day before transfection, cells are split into a T75 flask at a cell density of 300,000 cells/mL (10 mL total) and allowed to attach overnight in a humidified CO2 incubator at 37° C.
Approximately 20 ug DNA is mixed in OptiMEM (Invitrogen) to a total volume of 650 μL. Following incubation, the OptiMEM-DNA mixture is added to the OptiMEM-Lipofectin mix and incubated for 15 minutes at 37° C. The DNA-Lipofectin mixture is then added directly to the T75 flask and the flask is returned to the incubator.
After overnight incubation, compound is added to individual wells of a 96-well plate in a 10 μL volume of media at 10× concentration along with 17β estradiol whose final concentration is 0.1 nM. Normally, DMSO (used as a vehicle) is included to achieve a final concentration of 0.1% when added to the cells. Transfected cells are trypsinized, resuspended in DMEM/F12/10% charcoal-stripped serum and added to the 96-well plate at 25,000 cells/well in 90 μL of media. The plate is then returned to the incubator for 24 hours.
After incubation with compounds for 24 hours, Firefly and Renilla luciferase activities are measured to determine ER transcriptional activity. Media is removed from 96-well plates by decanting and blotting on paper towels.
One second total read time after a one second delay.
One second total read time after one second delay. If Firefly luciferase signal is high, Renilla assay must be done an hour after the Firefly assay due to incomplete squelching of Firefly signal.
The data describing the antagonist and degradation properties for the examples is compiled in table 10. The column titled MCF7 IC50 reports the inflection point of the inhibition of transcription in MCF7 cells as described above. Percentage ERα remaining reports the remaining ERα protein measured at 10 μM concentration of the ligand as described above. The column ERα IC50 reports the inflection point of the degradation in response to the ligand concentration.

SMILES	IC50
CC(C)c1ccccc1-c1sc2cc(O)ccc2c1Oc1ccc(/C=C/C(=O)O)cc1 [Example 4, (E)-3-(4-((6-hydroxy-2-(2-isopropylphenyl)benzo[b]thiophen-3-yl)oxy)phenyl)acrylic acid]	0.006 µM
CNC(=O)/C=C/c1ccc(Oc2c(-c3ccc(F)cc3)sc3cc(O)ccc23)cc1 [Example 67, (E)-3-(4-((2-(4-fluorophenyl)-6-hydroxybenzo[b]thiophen-3-yl)oxy)phenyl)-N-methylacrylamide]	0.373 µM
CN(c1ccc(/C=C/C(=O)O)cc1)c1c(-c2ccc(O)cc2)sc2cc(O)ccc12 [Example 30, (E)-3-(4-((6-hydroxy-2-(4-hydroxyphenyl)benzo[b]thiophen-3-yl)(methyl)amino)phenyl)acrylic acid]	3.4 µM
O=C(O)/C=C/c1ccc(Oc2c(-c3ccccc3[N+](=O)[O-])sc3cc(O)ccc23)cc1 [Example 21, (E)-3-(4-((6-hydroxy-2-(2-nitrophenyl)-benzo[b]thiophen-3-yl)oxy)phenyl)-acrylic acid]	0.313 µM
Cc1cc(F)ccc1-c1sc2cc(O)ccc2c1Oc1ccc(/C=C/c2n[nH]c(=O)o2)cc1 [Example 48, (E)-5-(4-((2-(4-fluoro-2-methylphenyl)-6-hydroxybenzo[b]thiophen-3-yl)oxy)styryl)-1,3,4-oxadiazol-2(3H)-one]	0.422 µM
Cc1cc(C)cc(-c2sc3cc(O)ccc3c2Oc2ccc(/C=C/C(=O)O)cc2)c1 [Example 23, (E)-3-(4-((2-(3,5-dimethylphenyl)-6-hydroxybenzo[b] - thiophen-3-yl)oxy)phenyl)-acrylic acid]	0.748 µM
CN(C)Cc1ccccc1-c1sc2cc(O)ccc2c1Oc1ccc(/C=C/C(=O)O)cc1 [Example 77, (E)-3-(4-((2-(2-((dimethylamino)methyl)phenyl)-6-hydroxybenzo[b]thiophen-3-yl)oxy)phenyl)acrylic acid]	0.04 µM
CNC(=O)/C=C/c1ccc(Oc2c(-c3ccc(C(F)(F)F)cc3)sc3cc(O)ccc23)cc1 [Example 63, (E)-3-(4-((6-hydroxy-2-(4-(trifluoromethyl)-phenyl)benzo[b]thiophen-3-yl)oxy)phenyl)-N-methylacrylamide]	0.185 µM
COc1ccc(-c2sc3cc(O)ccc3c2Oc2ccc(/C=C/C(=O)O)cc2)cc1 [Example 26, (E)-3-(4-((6-hydroxy-2-(4-methoxyphenyl)benzo[b]thiophen-3-yl)oxy)phenyl)acrylic acid]	0.647 µM
O=C(O)/C=C/c1ccc(Oc2c(-c3ccc(OC(F)(F)F)cc3)sc3cc(O)ccc23)cc1 [Example 59, (E)-3-(4-((6-hydroxy-2-(4-(trifluoromethoxy)-phenyl)benzo[b]thiophen-3-yl)oxy)phenyl)-acrylic acid]	1.25 µM
Cc1cccc(-c2sc3cc(O)ccc3c2Oc2ccc(/C=C/C(=O)O)cc2)c1C [Example 13, (E)-3-(4-((2-(2,3-dimethylphenyl)-6-hydroxybenzo[b]-thiophen-3-yl)oxy)phenyl)-acrylic acid]	0.151 µM
O=C(O)/C=C/c1ccc(Oc2c(-c3ccc(C(F)(F)F)cc3C(F)(F)F)sc3cc(O)ccc23)cc1 [Example 11, (E)-3-(4-((2-(2,4-bis(trifluoromethyl)-phenyl)-6-hydroxy-benzo[b]thiophen-3-yl)oxy)phenyl)-acrylic acid]	0.053 µM
Cc1cc(Oc2c(-c3ccc(O)cc3)sc3cc(O)ccc23)ccc1/C=C/C(=O)O [Example 56, (E)-3-(4-((6-hydroxy-2-(4-hydroxyphenyl)-benzo[b]thiophen-3-yl)oxy)-2-methylphenyl)-acrylic acid]	1.27 µM
O=C(O)/C=C/c1ccc(Oc2c(-c3ccc(O)cc3)sc3c(F)c(O)c(F)cc23)cc1 [Example 38, (E)-3-(4-((5,7-difluoro-6-hydroxy-2-(4-hydroxyphenyl)benzo[b]-thiophen-3-yl)oxy)phenyl)acrylic acid]	0.152 µM
CCCc1nnc(/C=C/c2ccc(Oc3c(-c4ccc(F)cc4C)sc4cc(O)ccc34)cc2)o1 [Example 47, (E)-2-(4-fluoro-2-methylphenyl)-3-(4-(2-(5-propyl-1,3,4-oxadiazol-2-yl)vinyl)phenoxy)benzo [b]thiophen-6-ol]	0.111 µM
O=C(O)/C=C/c1ccc(Oc2c(-c3ccccc3Cl)sc3cc(O)ccc23)cc1 [Example 9, (E)-3-(4-((2-(2-chlorophenyl)-6-hydroxybenzo[b]-thiophen-3-yl)oxy)phenyl)-acrylic acid]	0.407 µM
CCOC(=O)/C=C/c1ccc(Oc2c(-c3ccc(O)cc3)sc3cc(O)ccc23)c(C)c1 [Example 35, (E)-ethyl 3-(4-((6-hydroxy-2-(4-hydroxyphenyl)benzo[b]-thiophen-3-yl)oxy)-3-methylphenyl)acrylate]	0.103 µM
COC(=O)/C=C/c1ccc(Oc2c(-c3ccc(O)cc3)sc3c(F)c(O)c(F)cc23)cc1 [Example 37, (E)-methyl 3-(4-((5,7-difluoro-6-hydroxy-2-(4-hydroxyphenyl)-benzo[b]thiophen-3-yl)oxy)phenyl)acrylate]	0.041 µM
C[C@H](O)c1ccccc1-c1sc2cc(O)ccc2c1Oc1ccc(/C=C/C(=O)O)cc1 [Example 25, (S,E)-3-(4-((6-hydroxy-2-(2-(1-hydroxyethyl)phenyl)-benzo[b]thiophen-3-yl)oxy)phenyl)acrylic acid]	0.179 µM
CC(=O)c1ccccc1-c1sc2cc(O)ccc2c1Oc1ccc(/C=C/C(=O)O)cc1 [Example 19, (E)-3-(4-((2-(2-acetylphenyl)-6-hydroxybenzo[b]-thiophen-3-yl)oxy)phenyl)-acrylic acid]	0.218 µM
Cc1cc(C(F)(F)F)ccc1-c1sc2cc(O)ccc2c1Oc1ccc(/C=C/C(=O)O)cc1 [Example 10, (E)-3-(4-((6-hydroxy-2-(2-methyl-4-(tri-fluoromethyl)phenyl)-benzo[b]thiophen-3-yl)oxy)phenyl)acrylic acid]	0.207 µM
O=C(O)/C=C/c1ccc(Oc2c(-c3ccccc3)sc3cc(O)ccc23)cc1 [Example 60, (E)-3-(4-((6-hydroxy-2-phenylbenzo[b]thiophen-3-yl)oxy)phenyl)-acrylic acid]	2.31 µM
Cn1nnc(/C=C/c2ccc(Oc3c(-c4ccc(O)cc4)sc4cc(O)ccc34)cc2)n1 [Example 55, (E)-2-(4-hydroxyphenyl)-3-(4-(2-(2-methyl-2H-tetrazol-5-yl)vinyl)-phenoxy)benzo[b]-thiophen-6-ol]	0.003 µM
Cc1cc(F)ccc1-c1sc2cc(O)ccc2c1Oc1ccc(/C=C/C(=O)NO)cc1 [Example 32, (E)-3-(4-((2-(4-fluoro-2-methylphenyl)-6-hydroxybenzo[b]thiophen-3-yl)oxy)phenyl)-N-hydroxyacrylamide]	0.015 µM
O=C(O)CCc1ccc(Oc2c(-c3ccc(O)cc3)sc3cc(O)ccc23)cc1 [Example 1, 3-(4-((6-hydroxy-2-(4-hydroxyphenyl)benzo[b]thiophen-3-yl)oxy)phenyl)propanoic acid]	0.457 µM
C/C(=C\c1ccc(Oc2c(-c3ccc(O)cc3)sc3cc(O)ccc23)cc1)C(=O)O [Example 28, (E)-3-(4-((6-hydroxy-2-(4-hydroxyphenyl)benzo[b]thiophen-3-yl)oxy)phenyl)-2-methylacrylic acid]	0.886 µM
O=C(/C=C/c1ccc(Oc2c(-c3ccc(O)cc3)sc3cc(O)ccc23)cc1)NCCO [Example 65, (E)-3-(4-((6-hydroxy-2-(4-hydroxyphenyl)benzo[b]-thiophen-3-yl)oxy)phenyl)-N-(2-hydroxyethyl)acrylamide]	0.055 µM
O=C(O)/C=C/c1ccc(Oc2c(-c3ccc(O)c(F)c3)sc3cc(O)ccc23)cc1 [Example 40, (E)-3-(4-((2-(3-fluoro-4-hydroxyphenyl)-6-hydroxybenzo[b]thiophen-3-yl)oxy)phenyl)acrylic acid]	0.424 µM
